Experimental data from ChEMBL document CHEMBL1126428, “Inhibitors of myo-inositol monophosphatase unrelated to the enzyme substrate” (Bioorg Med Chem Lett, 1992).

These molecules were tested against T1, Inositol monophosphatase 1 (Bos taurus, UniProt P20456) (assay: Concentration required for 50% inhibition of Inositol monophosphatase).
T1 sequence (P20456 whole entry): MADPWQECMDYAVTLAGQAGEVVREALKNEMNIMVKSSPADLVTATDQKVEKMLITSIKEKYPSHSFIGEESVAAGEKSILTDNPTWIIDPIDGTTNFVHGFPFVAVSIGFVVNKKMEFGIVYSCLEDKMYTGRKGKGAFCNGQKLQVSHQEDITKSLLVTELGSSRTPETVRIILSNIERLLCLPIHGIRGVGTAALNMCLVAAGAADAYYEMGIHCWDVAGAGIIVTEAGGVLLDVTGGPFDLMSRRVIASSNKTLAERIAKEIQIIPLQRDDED

| SMILES | IC50 [µM] |
| --- | --- |
| O=P(O)(O)C(O)(c1ccc(Cl)cc1)P(=O)(O)O | 36 |
| COc1ccc(C(O)(P(=O)(O)O)P(=O)(O)O)cc1 | 40 |
| O=P(O)(O)C(O)(Cc1ccccc1)P(=O)(O)O | 38 |
| CC(O)(P(=O)(O)O)P(=O)(O)O [ETIDRONIC ACID] | 110 |
| CN(C)c1ccc(C(O)(P(=O)(O)O)P(=O)(O)O)cc1 | 140 |

The next molecules have a lower IC50 than those just listed; values first:

| IC50 [µM] | SMILES |
| --- | --- |
| 29 | O=P(O)(O)C(O)(c1ccccc1)P(=O)(O)O |
| 23 | O=P(O)(O)C(O)(Cc1ccc(Cl)cc1Cl)P(=O)(O)O |
| 0.61 | O=P(O)(O)C(O)(c1ccc(Oc2cccc3c2CCCC3)cc1)P(=O)(O)O |
